How the values were obtained:
HEK293 = test: Viability assay (CellTiter-Glo), HEK293; format: cell-based, human; conditions: for Cell viability (%) HEK293 120 μM: CellTiter-Glo; for toxicity at 120 μM (in words): HEK293, 120 μM
Description: (§1) The screen identified several compounds that reduced NO in activated microglia and macrophages. The tested compounds included achiral and chiral imidazodiazepines and benzodiazepines. In general, microglia were more sensitive to compound treatment with more pronounced reduction of NO than macrophages. […] Cell viability assays with HEK293 (kidney) and HepG2 (liver) cells were conducted in a concentration dependent manner. A limited number of compounds, such as GL-III-63, GL-III-76A, and GL-III-77, were toxic at 120 μM.
(§2) Viability assay. Human liver hepatocellular carcinoma (HEPG2) and human embryonic kidney 293T (HEK293T) cell lines were purchased (ATCC) and cultured in 75 cm^2 flasks (CellStar). Cells were grown in DMEM/High Glucose (Hyclone, #SH3024301) media to which non-essential amino acids (Hyclone, #SH30238.01), 10 mM HEPES (Hyclone, #SH302237.01), 5×10^6 units of penicillin and streptomycin (Hyclone, #SV30010), and 10% of heat inactivated fetal bovine serum (Gibco, #10082147) were added. Cells were harvested using 0.05% Trypsin (Hyclone, #SH3023601), washed with PBS, and dispensed into sterile white, optical bottom 384-well plates (NUNC, #142762). After three hours, small molecule DMSO solutions were transferred with a Tecan Freedom EVO liquid handling system equipped with a 100 nL pin tool (V&P Scientific). The controls were 3-dibutylamino-1-(4-hexyl-phenyl)-propan-1-one (25 mM in DMSO, positive control) and DMSO (negative control). The cells were incubated for 48 hours followed by the addition of CellTiter-Glo™, a luminescence-based cell viability assay (Promega, Madison, WI). All luminescence readings were performed on a Tecan Infinite M1000 plate reader. The assay was carried out in quadruplet with two independent runs. The data were analyzed by nonlinear regression.

Mouse microglia [1] = test: NO production (Griess assay), LPS/IFNγ-activated mouse microglia; format: cell-based; conditions: for Inhibition of NO production (%) Mouse microglia 10 μM: 24 hours, 1 μM GABA, LPS/IFNγ
RAW macrophages [2] = test: Cell viability (CellTiter-Glo), RAW macrophages; format: cell-based, mouse; conditions: CellTiter-Glo
Mouse microglia [3] = test: Cell viability (CellTiter-Glo), mouse microglia; format: cell-based; conditions: 50 μM, CellTiter-Glo
Method in brief: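 Mouse microglia (1×10^6 cells/mL) activated with 50 ng/ml LPS plus 150 U/mL IFNγ, incubated with compounds ~24 h at 37° C. Viability of remaining cells read by CellTiter-Glo luminescence after supernatant removal for Griess NO assay; […].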

HEPG2 = test: Viability assay (CellTiter-Glo), HEPG2; format: cell-based, human; conditions: for Cell viability (%) HEPG2 120 μM: CellTiter-Glo; for toxicity at 120 μM (in words): HepG2, 120 μM
Description: as §1, §2

RAW macrophages [4] = test: NO production (Griess assay), LPS/IFNγ-activated RAW264.7 macrophages; format: cell-based, mouse; conditions: for Inhibition of NO production (%) RAW macrophages 10 μM: 24 hours, 1 μM GABA, LPS/IFNγ

SMILES | Cell viability (%) HEK293 120 μM (HEK293) [%] | toxicity at 120 μM (in words) (HEK293) | Inhibition of NO production (%) Mouse microglia 10 μM (Mouse microglia [1]) [%] | Cell viability (%) RAW macrophages 50 μM (RAW macrophages [2]) [%] | Cell viability (%) Mouse microglia 50 μM (Mouse microglia [3]) [%] | Cell viability (%) HEPG2 120 μM (HEPG2) [%] | toxicity at 120 μM (in words) (HEPG2) | Inhibition of NO production (%) RAW macrophages 10 μM (RAW macrophages [4]) [%] | inhibition at 10 µM (Mouse microglia [1]; Mus musculus, Microglia, 24 h) [%] | inhibition at 10 µM (RAW macrophages [4]; Mus musculus, Macrophage, 24 h) [%] | inhibition at 50 µM (Mouse microglia [1]; Mus musculus, Microglia, 24 h) [%] | inhibition at 50 µM (RAW macrophages [4]; Mus musculus, Macrophage, 24 h) [%]
CC1N=C(c2ccccc2F)c2cc(C#C[Si](C)(C)C)ccc2-n2cnc(-c3cnco3)c21 (stereo not drawn) [GL-III-77] | 0 ± 2 | toxic | 31 ± 2 | 85 ± 3 | 98 ± 4 | 0 ± 4 | toxic | 29 ± 2 | – | – | – | –
C#Cc1ccc2c(c1)C(c1ccccc1F)=N[C@H](C)C(=O)N2 [GL-I-62] | 79 ± 7 | – | 13 ± 7 | 100 ± 3 | 92 ± 7 | 89 ± 10 | – | 3 ± 2 | – | – | – | –
CC(C)c1noc(-c2ncn3c2[C@@H](C)N=C(c2ccccc2F)c2cc(C4CC4)ccc2-3)n1 [GL-IV-04, (R)-5-(8-Cyclopropyl-6-(2-fluorophenyl)-4-methyl-4H-benzo[f]imidazo[1,5-a][1,4]diazepin-3-yl)-3-isoproyl-1,2,4-oxadiazole] | 71 ± 6 | – | – | 100 ± 7 | 86 ± 6 | 100 ± 6 | – | – | 62 ± 8 | 11 ± 2 | – | –
C#Cc1ccc2c(c1)C(c1ccccc1F)=NC(C)c1c(C(=S)NCC)ncn1-2 (stereo not drawn) [GL-III-86] | 66 ± 10 | – | 39 ± 7 | 100 ± 14 | 99 ± 15 | 100 ± 8 | – | 7 ± 4 | – | – | – | –
C#Cc1ccc2c(c1)C(c1ccccc1F)=NCc1c(C(=O)OCCCO)ncn1-2 [GL-II-80] | 76 ± 8 | – | 38 ± 8 | 100 ± 2 | 85 ± 1 | 100 ± 9 | – | 5 ± 3 | – | – | – | –
C#Cc1ccc2c(c1)C(c1ccccc1F)=NCc1c(C(=O)O)ncn1-2 [GL-II-79] | 91 ± 13 | – | 44 ± 6 | 100 ± 3 | 84 ± 5 | 100 ± 7 | – | 0 ± 3 | – | – | – | –
C#Cc1ccc2c(c1)C(c1ccccc1F)=NC(C)c1c(C(=S)NC3CC3)ncn1-2 (stereo not drawn) [GL-III-87] | 90 ± 10 | – | 23 ± 7 | 100 ± 7 | 100 ± 2 | 100 ± 5 | – | 0 ± 1 | – | – | – | –
CC1N=C(c2ccccn2)c2cc(Br)ccc2NC1=O (stereo not drawn) [GL-II-05] | 94 ± 3 | – | 12 ± 5 | 100 ± 11 | 88 ± 8 | 92 ± 5 | – | 0 ± 1 | – | – | – | –
CCOC(=O)c1ncn2c1CN=C(c1ccccn1)c1cc(C3CC3)ccc1-2 [GL-IV-05] | 47 ± 3 | – | 59 ± 4 | 100 ± 6 | 88 ± 12 | 100 ± 10 | – | 14 ± 3 | – | – | – | –
CCOC(=O)c1ncn2c1[C@@H](C)N=C(c1ccccc1F)c1cc(Cl)ccc1-2 [GL-III-53] | 47 ± 10 | – | 85 ± 14 | 97 ± 7 | 72 ± 7 | 94 ± 10 | – | 3 ± 2 | – | – | – | –
C#Cc1ccc2c(c1)C(c1ccccc1F)=NC(C)c1c(C(=S)N(C)C)ncn1-2 (stereo not drawn) [GL-III-85] | 70 ± 12 | – | 34 ± 8 | 100 ± 10 | 84 ± 12 | 100 ± 11 | – | 0 ± 2 | – | – | – | –
CCc1noc(-c2ncn3c2CN=C(c2ccccn2)c2cc(Br)ccc2-3)n1 [GL-III-99] | 87 ± 11 | – | 49 ± 5 | 100 ± 9 | 95 ± 9 | 93 ± 7 | – | 19 ± 3 | – | – | – | –
CCOC(=O)c1ncn2c1[C@@H](C)N=C(c1ccccn1)c1cc(C#C[Si](C)(C)C)ccc1-2 [GL-II-18] | 53 ± 10 | – | 49 ± 10 | 99 ± 2 | 89 ± 9 | 100 ± 8 | – | 11 ± 4 | – | – | – | –
C#Cc1ccc2c(c1)C(c1ccccc1F)=NC(C)c1c(C(=S)NC)ncn1-2 (stereo not drawn) [GL-III-84] | 64 ± 5 | – | 32 ± 4 | 100 ± 12 | 96 ± 8 | 100 ± 10 | – | 10 ± 5 | – | – | – | –
C#Cc1ccc2c(c1)C(c1ccccc1)=NCC(=O)N2C [QH-II-66] | 81 ± 2 | – | 54 ± 9 | 100 ± 12 | 97 ± 11 | 100 ± 4 | – | 17 ± 6 | – | – | – | –
CC1N=C(c2ccccc2F)c2cc(Br)ccc2-n2cnc(C=O)c21 (stereo not drawn) [GL-III-75] | 73 ± 2 | – | 44 ± 2 | 100 ± 2 | 87 ± 7 | 74 ± 6 | – | 3 ± 5 | – | – | – | –
CC1N=C(c2ccccc2F)c2cc(Br)ccc2-n2cnc(-c3cnco3)c21 (racemic) [GL-III-76A] | 0 ± 3 | toxic | 58 ± 9 | 97 ± 4 | 100 ± 9 | 0 ± 2 | toxic | 6 ± 3 | – | – | – | –
C#Cc1ccc2c(c1)C(c1ccccc1F)=N[C@H](C)c1c(-c3nc(CC)no3)ncn1-2 [MP-IV-005, (R)-3-ethyl-5-(8-ethynyl-6-(2-fluorophenyl)-4-methyl-4H-benzo[f]imidazo[1,5-a][1,4]diazepin-3-yl)-1,2,4-oxadiazole] | 68 ± 14 | – | – | 86 ± 14 | 86 ± 13 | 98 ± 8 | – | – | 45 ± 3 | 5 ± 3 | 89 ± 17 | 59 ± 9
C#Cc1ccc2c(c1)C(c1ccccn1)=NC(C)C(=O)N2C (stereo not drawn) [GL-II-61] | 83 ± 10 | – | 28 ± 2 | 100 ± 8 | 91 ± 8 | 82 ± 3 | – | 10 ± 4 | – | – | – | –
CC1N=C(c2ccccc2F)c2cc(Br)ccc2-n2cnc(C=O)c21 (stereo not drawn) [GL-III-35] | 79 ± 8 | – | 17 ± 7 | 100 ± 2 | 100 ± 8 | 98 ± 8 | – | 0 ± 4 | – | – | – | –
C#Cc1ccc2c(c1)C(c1ccccc1F)=NC(C)c1c(C(=O)[O-])ncn1-2.[Na+] (stereo not drawn) [GL-IV-17] | 67 ± 5 | – | 41 ± 5 | 100 ± 5 | 89 ± 9 | 93 ± 8 | – | 5 ± 5 | – | – | – | –

From patent publication US20240279232A1, “USE OF SUBSTITUTED 5-(4-METHYL-6-PHENYL-4H-BENZO[F]IMIDAZO[1,5-A][1,4] DIAZEPIN-3-YL)-1,2,4-O[…] THE TREATMENT OF INFLAMMATORY CONDITIONS” (priority 2021, published 2024)
